Measurements from patent EP4537820A1, “COMPOUND AND COMBINATIONS COMPRISING SAID COMPOUND TO IMPROVE IMMUNE RESPONSE” (Institut Gustave-Roussy, priority 2023, dated 2025).

How the values were obtained:
20S proteasome = tested on: T1, 20S proteasome; experiment: Proteasome Activity Assay with fluorogenic AMC substrates, without REGγ; type: biochemical, human; settings: 20S proteasome not in the presence of REGγ, even at high doses
T1 construct: purified 20S proteasome from human erythrocytes; purchased Biotechne E-360-050; host or cells: human erythrocytes
Method: Proteasome Activity Assay - The activity of the 20S and 20S-REGγ proteasomes was followed by fluorescence using the Bz-VGR-AMC (#BML-BW9375-0005, Enzo Life Sciences) substrate at 50µM for tryspin-like activity, the Suc-LLVY-AMC (#BML-P802-0005, Enzo Life Sciences) substrate at 100µM for the chemotrypsin-like activity and the Z-LLE-AMC (#BML-ZW9345-0005, Enzo Life Sciences) substrate at 100µM for the caspase-like activity. Substrates were incubated with 0,5nM of human 20S ((#E-360-050, Biotechne) and 12,5nM of human REGγ or 2nM of human REGαβ with or without compounds at different concentrations. Purified human REGγ and REGGαβ were generously provided by Julien Marcoux and Marie-Pierre Bousquet-Dubouch. Human REGγ and REGαβ were purified according to Le Feuvre et al., 2009 from plasmids kindly provided by Olivier Coux. The activity assay was performed in 96 well plates in a final volume of 80µL. Plates were read every minute for 90 minutes with a FLUOstar plate reader (BMG Labtech). To detect fluorescence, the excitation wavelength was set to 355nm and emission wavelength at 460nm. […]

OT-1 CD8+ T cells = experiment: Co-culture of OT-1 cells with treated MCA205-Glob-SL8-intron cells, T cell activation by flow cytometry; type: cell-based, mouse
Method: MCA205-Glob-SL8-intron were plated at 1×10^5 cells in 12-well plates and incubated overnight. The next day, cells were treated with different concentrations of drugs for 24 hours. After treatment, cells were harvested with trypsin, washed twice with OT-1 Media (RPMI-1640, 10% FBS, 2mM L-glutamine, 50µM of 2-mercaptoéthanol, 100 IU/mL of Penicillin G, […]), and each condition was counted with a KOVA slide and Trypan-blue. For each tested condition 2×10^5 of treatedcells were plated in a 96-wells plate. The same day, lymph nodes from an OT1 mouse (C57B1/6J TCR-transgenic CD8^+ T cells specific for Kb -OVA257-264, obtained from Charles River #642OT1) were harvested. Lymph nodes were dissociated and filtered through a 40 µm filter and red blood cells were lysed with ACK buffer. 8×10^5 OT-1 cells were added to the MCA205-Glob-SL8-intron cells (E:T ratio of 4:1) and the plate was incubated overnight at 37°C. The next day, translocation to the golgi was blocked with brefeldin A (#420601, Biolegend) for 3h before cells were stained with Zombie Aqua (#423102, Biolegend) and antibodies described in Table 2, to measure T cell activation. Samples were acquired on a Cytek Aurora (Cytek Biosciences) spectral flow cytometer and data was analysed with FlowJo (V10) software (TreeStar, Inc.). Table 2: Panel of antibodies for the study of OT-1 CD8+ T-cells activation by MCA205-Glob-SL8-intron.
In their experiments, OT-1 cells were co-incubated with MCA205 cells expressing the globin-SL8-intron construct. To assess the production of antigenic peptide substrates, they measured OT-1 cell proliferation using FACS analysis. They analyzed the expression levels of early activation markers, CD69 and CD25, which are critical for the proliferation of activated T cells. For that purpose, MCA205 cells with the globin-SL8-intron construct were exposed to varying concentrations of compound 58 for 24 hours, followed by co-incubation with OT-1 cells.
Furthermore, inventors sought to characterize the activated OT-1 cell subset induced by this treatment. To do so, they examined the expression of CD44 and CD62L (L-selectin) markers, which delineate two major subsets of OT-1 CD8+ T cells following co-culture with MCA cells treated with compound 58: effector/memory (CD44^high/CD62L^low) and central memory (CD44^high/CD62L^high) CD8+ T cell subsets.
Inventors then evaluated the effector function of OT-1 cells post-co-culture with MCA cells treated with compound 58 by examining the expression of perforin.

[1] = MCA cells treated 24 hours, then co-culture with OT-1 cells

Cc1ccc(N=Nc2ccc(C)cc2NC(=O)Nc2ccccc2F)cc1 [compound 58]
inhibitory effect on the three activities (trypsin-like, caspase-like, chymotrypsin-like) (20S proteasome): did not exhibit any inhibitory effect
frequency of CD69+ CD25+ OT-1 T cells (OT-1 CD8+ T cells; MCA205 cells treated 24 hours, then co-incubation with OT-1 cells, compared to untreated cells): increased frequency
frequency of CD44^high/CD62L^low effector/memory cells (OT-1 CD8+ T cells; [1]): dose-dependent increase
frequency of central memory CD44^high/CD62L^high cells (OT-1 CD8+ T cells; [1]): remained unchanged
perforin expression of OT-1 cells (OT-1 CD8+ T cells; [1]): increased perforin expression
